# Molecular target: T1, human orexin type 2 receptor (Homo sapiens, UniProt O43614)
# T1 construct: expressed in transfected cells
# T1 sequence (O43614 1-444): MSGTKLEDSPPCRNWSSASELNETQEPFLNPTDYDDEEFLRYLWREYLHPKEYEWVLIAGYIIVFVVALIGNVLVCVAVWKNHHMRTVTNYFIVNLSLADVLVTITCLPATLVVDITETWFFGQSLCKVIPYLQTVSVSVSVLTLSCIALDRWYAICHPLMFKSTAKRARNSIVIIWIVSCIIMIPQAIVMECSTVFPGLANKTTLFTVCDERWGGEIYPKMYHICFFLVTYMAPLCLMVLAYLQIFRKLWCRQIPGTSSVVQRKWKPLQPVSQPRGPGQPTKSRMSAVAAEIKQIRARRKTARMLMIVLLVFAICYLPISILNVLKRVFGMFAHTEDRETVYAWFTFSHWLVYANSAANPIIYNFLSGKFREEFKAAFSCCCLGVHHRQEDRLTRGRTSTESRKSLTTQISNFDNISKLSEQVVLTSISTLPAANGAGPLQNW
# Test: Measurement of orexin type 2 receptor agonist activity (calcium fluorescence, Fluo-4 AM, FDSS)
# Format: cell-based
# Conditions: test compound 3 μM; CHO cells expressing human OX2 receptor; DMSO = 0%, orexin A (human) = 100%
# Text: To obtain a cell clone stably expressing human orexin type 2 receptor, human orexin type 2 receptor cDNA was inserted into pcDNA3.1(+) plasmid vector (Invitrogen), and a plasmid DNA for expression of human orexin type 2 receptor (pcDNA3.1(+)/hOX2R) was cloned. The plasmid DNA was introduced into CHO-K1 cell by an electroporation method, and human orexin type 2 receptor expressing clone cells were obtained by limiting dilution method by using G418 drug resistance as a selection marker.
# CHO cells forcibly expressing human OX2 receptor were seeded in each well of 384 well black transparent bottom plate (BD Falcon) at 10,000 cells/well, and cultured for one day in a 5% CO2 incubator at 37° C. After removal of the medium in the cell plate, assay buffer A containing a calcium indicator (HBSS (Thermo Fisher Scientific), 20 mM HEPES (Thermo Fisher Scientific), 0.1% BSA (Sigma-Aldrich), 2.5 μg/mL Fluo-4 AM (DOJINDO Chemical), 0.08% Pluronic F127 (DOJINDO Chemical), 1.25 mM probenecid (DOJINDO Chemical)) was added at 30 μL/well. The plate was stood for 30 min in a 5% CO2 incubator at 37° C., and further stood at room temperature for 30 min. A test compound prepared by diluting with assay buffer B (HBSS, 20 mM HEPES, 0.1% BSA) was added at 10 μL/well, and the fluorescence value was measured by FDSSμCELL (Hamamatsu Photonics K.K.) every one sec for 1 min, and thereafter every two sec for […]. The activity (%) of the test compound was calculated assuming that variation in the fluorescence value when DMSO was added instead of the test compound was 0%, and variation in the fluorescence value when orexin A (human) (PEPTIDE INSTITUTE, INC.) was added at the final concentration of 10 nM was 100%.
row,SMILES,"OX2R agonist activity (3 μM, %) [%]"
1,"CC1C(C(=O)N2CCC[C@H](NS(C)(=O)=O)C2)C1c1ccccc1-c1c(F)cccc1F (mixture of isomers) [Example 305, a mixture of N-{(3S)-1-[(1R,2R,3S)-2-(2′,6′-difluoro[1,1′-biphenyl]-2-yl)-3-methylcyclopropane-1-carbonyl]piperidin-3-yl}methanesulfonamide and N-{(3S)-1-[(1S,2S,3R)-2-(2′,6′-difluoro[1,1′-biphenyl]-2-yl)-3-methylcyclopropane-1-carbonyl]piperidin-3-yl}methanesulfonamide]",85
2,"CS(=O)(=O)N[C@H]1CCN(C(=O)C2CC2c2cccc(F)c2-c2c(F)cccc2F)C1 (mixture of isomers) [Example 192, a mixture of N-{(3S)-1-[(1R,2R)-2-(2′,6,6′-trifluoro[1,1′-biphenyl]-2-yl)cyclopropane-1-carbonyl]pyrrolidin-3-yl}methanesulfonamide and N-{(3S)-1-[(1S,2S)-2-(2′,6,6′-trifluoro[1,1′-biphenyl]-2-yl)cyclopropane-1-carbonyl]pyrrolidin-3-yl}methanesulfonamide]",95
3,"CN(C)S(=O)(=O)NC1CCCCN(C(=O)C2CC2c2ccccc2-c2c(F)cccc2F)C1 (racemic) [Example 162, a mixture of rac-N′-{(3R)-1-[(1R,2R)-2-(2′,6′-difluoro[1,1′-biphenyl]-2-yl)cyclopropane-1-carbonyl]azepan-3-yl}-N,N-dimethylsulfuric diamide and rac-N′-{(3S)-1-[(1R,2R)-2-(2′,6′-difluoro[1,1′-biphenyl]-2-yl)cyclopropane-1-carbonyl]azepan-3-yl}-N,N-dimethylsulfuric diamide]",106
4,"CS(=O)(=O)N[C@H]1CCN(C(=O)[C@@H]2C[C@H]2c2ccccc2-c2c(F)cccc2F)C1 [Example 23, N-{(3S)-1-[(1R,2R)-2-(2′,6′-difluoro[1,1′-biphenyl]-2-yl)cyclopropane-1-carbonyl]pyrrolidin-3-yl}methanesulfonamide]",105
5,"CS(=O)(=O)N[C@@H]1CN(C(=O)[C@@H]2C[C@@]2(F)c2ccccc2-c2c(F)cccc2F)CCC1(F)F [Example 333, N-{(3R)-1-[(1S,2S)-2-(2′,6′-difluoro[1,1′-biphenyl]-2-yl)-2-fluorocyclopropane-1-carbonyl]-4,4-difluoropiperidin-3-yl}methanesulfonamide]",99
6,"CS(=O)(=O)NC1CN(C(=O)C2CC2c2ccccc2-c2c(F)cccc2F)CC1F (racemic) [Example 137, a mixture of rac-N-{(3S,4R)-1-[(1R,2R)-2-(2′,6′-difluoro[1,1′-biphenyl]-2-yl)cyclopropane-1-carbonyl]-4-fluoropyrrolidin-3-yl}methanesulfonamide and rac-N-{(3R,4S)-1-[(1R,2R)-2-(2′,6′-difluoro[1,1′-biphenyl]-2-yl)cyclopropane-1-carbonyl]-4-fluoropyrrolidin-3-yl}methanesulfonamide]",59
7,"Cc1ccc(C2CC2C(=O)N2CCCC(NS(C)(=O)=O)CC2)c(-c2c(F)cccc2F)c1 (racemic) [Example 167, a mixture of rac-N-{(4R)-1-[(1R,2R)-2-(2′,6′-difluoro-5-methyl[1,1′-biphenyl]-2-yl)cyclopropane-1-carbonyl]azepan-4-yl}methanesulfonamide and rac-N-{(4S)-1-[(1R,2R)-2-(2′,6′-difluoro-5-methyl[1,1′-biphenyl]-2-yl)cyclopropane-1-carbonyl]azepan-4-yl}methanesulfonamide]",96
8,"CN(C)S(=O)(=O)NC[C@@H]1CCN1C(=O)C1CC1c1c(F)cccc1-c1c(F)cccc1F (stereo partly drawn) [Example 314, N,N-dimethyl-N′-({(2S)-1-[(1R,2R)-2-(2′,3,6′-trifluoro[1,1′-biphenyl]-2-yl)cyclopropane-1-carbonyl]azetidin-2-yl}methyl)sulfuric diamide, or N,N-dimethyl-N′-({(2S)-1-[(1S,2S)-2-(2′,3,6′-trifluoro[1,1′-biphenyl]-2-yl)cyclopropane-1-carbonyl]azetidin-2-yl}methyl)sulfuric diamide]",99
9,"CS(=O)(=O)NC1CCCCN(C(=O)C2CC2c2sccc2-c2c(F)cccc2F)C1 (racemic) [Example 233, a mixture of rac-N-[(3R)-1-{(1R,2R)-2-[3-(2,6-difluorophenyl)thiophen-2-yl]cyclopropane-1-carbonyl}azepan-3-yl]methanesulfonamide and rac-N-[(3S)-1-{(1R,2R)-2-[3-(2,6-difluorophenyl)thiophen-2-yl]cyclopropane-1-carbonyl}azepan-3-yl]methanesulfonamide]",80
10,"COCS(=O)(=O)N[C@H]1CCCN(C(=O)C2CC2c2ccccc2-c2c(F)cccc2F)C1 (mixture of isomers) [Example 214, a mixture of N-{(3S)-1-[(1R,2R)-2-(2′,6′-difluoro[1,1′-biphenyl]-2-yl)cyclopropane-1-carbonyl]piperidin-3-yl}-1-methoxymethanesulfonamide and N-{(3S)-1-[(1S,2S)-2-(2′,6′-difluoro[1,1′-biphenyl]-2-yl)cyclopropane-1-carbonyl]piperidin-3-yl}-1-methoxymethanesulfonamide]",95
11,"CCS(=O)(=O)NC1CCCN(C(=O)C2CC2c2ccccc2-c2c(F)cccc2F)CC1 (racemic) [Example 112, a mixture of rac-N-{(4R)-1-[(1R,2R)-2-(2′,6′-difluoro[1,1′-biphenyl]-2-yl)cyclopropane-1-carbonyl]azepan-4-yl}ethanesulfonamide and rac-N-{(4S)-1-[(1R,2R)-2-(2′,6-difluoro[1,1′-biphenyl]-2-yl)cyclopropane-1-carbonyl]azepan-4-yl}ethanesulfonamide]",101

# The remaining lines, values ahead:
row,"OX2R agonist activity (3 μM, %) [%]",SMILES
1,95,"CC(O)[C@@H]1CN(C(=O)[C@@H]2C[C@@]2(F)c2ccccc2-c2c(F)cccc2F)[C@H]1CNS(C)(=O)=O (mixture of isomers) [Example 404, a mixture of N-{[(2R,3R)-1-[(1S,2S)-2-(2′,6′-difluoro[1,1′-biphenyl]-2-yl)-2-fluorocyclopropane-1-carbonyl]-3-[(1R)-1-hydroxyethyl]azetidin-2-yl]methyl}methanesulfonamide and N-{[(2R,3R)-1-[(1S,2S)-2-(2′,6′-difluoro[1,1′-biphenyl]-2-yl)-2-fluorocyclopropane-1-carbonyl]-3-[(1S)-1-hydroxyethyl]azetidin-2-yl]methyl}methanesulfonamide]"
2,98,"C[C@H](NS(=O)(=O)C1(C)CC1)[C@@H]1CCN1C(=O)[C@@H]1C[C@@]1(F)c1ccccc1-c1c(F)cccc1F [Example 388, N-[(1S)-1-{(2S)-1-[(1S,2S)-2-(2′,6′-difluoro[1,1′-biphenyl]-2-yl)-2-fluorocyclopropane-1-carbonyl]azetidin-2-yl}ethyl]-1-methylcyclopropane-1-sulfonamide]"
3,84,"COC[C@@H]1CN(C(=O)[C@@H]2C[C@@]2(F)c2ccccc2-c2c(F)cccc2F)[C@@H]1CNS(C)(=O)=O [Example 397, N-{[(2S,3R)-1-[(1S,2S)-2-(2′,6′-difluoro[1,1′-biphenyl]-2-yl)-2-fluorocyclopropane-1-carbonyl]-3-(methoxymethyl)azetidin-2-yl]methyl}methanesulfonamide]"
4,98,"C[C@@H]1CN(C(=O)[C@@H]2C[C@@]2(F)c2ccc(F)cc2-c2c(F)cccc2F)[C@@H]1CNS(C)(=O)=O [Example 386, N-({(2S,3R)-1-[(1S,2S)-2-fluoro-2-(2′,5,6′-trifluoro[1,1′-biphenyl]-2-yl)cyclopropane-1-carbonyl]-3-methylazetidin-2-yl}methyl)methanesulfonamide]"
5,95,"C[C@@H]1CN(C(=O)[C@@H]2C[C@@]2(F)c2ccccc2-c2c(F)cccc2F)C[C@@H](CNS(C)(=O)=O)O1 [Example 372, N-({(2S,6R)-4-[(1S,2S)-2-(2′,6′-difluoro[1,1′-biphenyl]-2-yl)-2-fluorocyclopropane-1-carbonyl]-6-methylmorpholin-2-yl}methyl)methanesulfonamide]"

# From patent US20250250230A1, “HETEROCYCLIC COMPOUND” (TAKEDA PHARMACEUTICAL COMPANY LIMITED, priority 2022, published 2025)
